Measured values: patent US20180042765A1, “METHODS AND DEVICES FOR TREATING POSTERIOR OCULAR DISORDERS” (CLEARSIDE BIOMEDICAL, INC., priority 2014, published 2018)
“Also recorded” adds a separate entry of the source.

Tests used:
[1] = test system: patients; conditions: in vivo; cited from earlier work
[2] = test system: patients with non-infectious uveitis; assay: Phase 1/2 open-label safety and tolerability study of TA administered to the suprachoroidal space; format: in vivo, human
Experimental: A clinical trial was designed to evaluate the safety and tolerability of a single injection of TA (triamcinolone acetonide administered as TRIESCENCE™) into the SCS in patients diagnosed with non-infectious uveitis.
Each mL of the sterile, aqueous suspension of TRIESENCE™ provides […] of triamcinolone acetonide, with sodium chloride for isotonicity, 0.5% (w/v) carboxymethylcellulose sodium and 0.015% polysorbate 80. It also contains potassium chloride, calcium chloride (dihydrate), magnesium chloride (hexahydrate), sodium acetate (trihydrate), sodium citrate (dihydrate) and water for injection. Sodium hydroxide and hydrochloric acid may be present to adjust pH to a target value 6-7.5.
The primary purpose of this trial was to evaluate the overall safety and tolerability of treating uveitis patients (non-infectious uveitis—intermediate, posterior or pan-uveitis) by administering a triamcinolone into the SCS via a single suprachoroidal injection. Eligibility criteria include adult patients with non-infectious uveitis experiencing either macular edema or vitreous haze, a common complication of uveitis. This was in order to determine whether SCS administration of TA could improve patient vision through reducing the effects of either condition. For inclusion in the trial, patients must have IOP (intra-ocular pressure) of no greater than 22 mmHg
Each patient enrolled received a single SCS microinjection of 4.0 mg (100 μL) of triamcinolone acetonide of day 1. Patients returned for a follow-up examination on the day after the injection and then for eight additional evaluations at weeks 1, 2, 4, 8, 12, 16, 20 and 26 following the treatment. Patients may receive other treatment at any time during the trial with any accepted therapy based on their physician's best medical judgment, if their condition deteriorates or if the physician otherwise determines it to be advisable. In the event a patient received other treatment, the patient was followed for the duration of the trial for safety purposes, but efficacy measures were no longer considered thereafter.
Patients received the single SCS injection 4 mm posterior to limbus and received an ultrasound assessment of scleral thickness immediately after injection.
Endpoints. The main safety endpoint was changes from baseline in intraocular pressure (TOP). Also assessed was an efficacy endpoint relating to changes in best-corrected visual acuity, or BCVA, as well as changes in excess retinal thickness.

[3] = test system: porcine model of acute posterior uveitis (intravitreal LPS); assay: Porcine model of acute uveitis: ocular histopathology; format: in vivo, pigs
[4] = test system: porcine model of acute posterior uveitis (intravitreal LPS); assay: Porcine model of acute uveitis: wide-field ocular fundus digital photography; format: in vivo, pigs; conditions: 72 hours
Experimental: Twenty four hours after the induction of acute uveitis by intraocular lipopolysaccharide (LPS) injection (Day 0) into the vitreous, 50 μL of balanced salt solution (BSS, Group 1) or triamcinolone (CLS-TA) (2 mg, Group 3) was injected into the suprachoroidal space (SCS). In Groups 2 and 4, oral prednisone (1 mg/kg/day, Group 2 or 0.1 mg/kg/day, Group 4) was dosed on Day 0, and repeated every 24 hours until euthanasia on day 3. Eyes were examined every 24 hours, which included measuring inflammation scores (Modified Hackett-McDonald) and intraocular pressure (TOP) until euthanasia 3 days after initiation of treatment. Safety assessments and histopathology were performed on all eyes. Electroretinography and wide-field fundus photography was performed at -24 hours, time 0 (before treatment) and on Day 3. Histopathology was performed on eyes after euthanasia. Wide-field Ocular Fundus Digital Photography. With the pigs anesthetized at times -24, 0 and 72 hours, and pupils dilated with tropicamide 1%, the ocular fundus was photographed with standardized illumination and focus using a wide-field digital imaging system ([…], Clarity Medical Systems, Pleasanton, Calif.).

[5] = test system: porcine model of acute posterior uveitis (intravitreal LPS); assay: Porcine model of acute uveitis: intraocular pressure (TonoVet); format: in vivo, pigs; conditions: Day 3, low dose 0.1 mg/kg/day PO, P<0.0065
Experimental: Twenty four hours after the induction of acute uveitis by intraocular lipopolysaccharide (LPS) injection (Day 0) into the vitreous, 50 μL of balanced salt solution (BSS, Group 1) or triamcinolone (CLS-TA) (2 mg, Group 3) was injected into the suprachoroidal space (SCS). In Groups 2 and 4, oral prednisone (1 mg/kg/day, Group 2 or 0.1 mg/kg/day, Group 4) was dosed on Day 0, and repeated every 24 hours until euthanasia on day 3. Eyes were examined every 24 hours, which included measuring inflammation scores (Modified Hackett-McDonald) and intraocular pressure (TOP) until euthanasia 3 days after initiation of treatment. Safety assessments and histopathology were performed on all eyes. Electroretinography and wide-field fundus photography was performed at −24 hours, time 0 (before treatment) and on Day 3. Histopathology was performed on eyes after euthanasia.
Treatment. […]
Intraocular Pressure. Intraocular pressure (TOP) was measured with the pigs awake and hand restrained at −144, −96, −24, 0, 24, 48, and 72 hours (see FIG. 1) using a TonoVet Tonometer (iCare, Finland). […] After the six measurements, the mean IOP was shown on the display providing the IOP that was recorded.
Data and Statistical Analysis. […] Results and probabilities were calculated using computerized statistical software (JMP 10, SAS Inc. Cary, N.C.).

[6] = test system: porcine model of acute posterior uveitis (intravitreal LPS); assay: Porcine model of acute uveitis: modified Hackett-McDonald ocular inflammation score; format: in vivo, pigs

Row | SMILES | patients with cataracts and increases in IOP levels [1] | patients with meaningful improvements in BCVA ([2]; 26 weeks after single SCS injection of TA on Day 1) | gain in BCVA ([2]; 26 weeks after single SCS injection, four of the eight patients) | decrease in retinal thickness (OCT), SCS injection compared to sub-tenon injection ([2]; one patient, bilateral uveitis, 4 mg TA SCS in one eye, 20 mg TA sub-tenon in the other eye) | OCT appearance of eye treated with TA via suprachoroidal injection vs Ozurdex treated eye ([2]; one patient, bilateral uveitis, four to six weeks after treatment) | average reduction in CME ([2]; seven patients, single TA injection into the SCS) | deaths ([2]; single SCS injection 4.0 mg (100 μL) TA, eight patients) | mean reduction in macular edema (retinal thickness) ([2]; week 26, single TA injection into the SCS, seven patients with macular edema) | mean histologic score of the posterior segment compared with low dose oral prednisone (Group 4) ([3]; high dose 1 mg/kg/day PO, P<0.013) | mean histologic score of the anterior segment compared with saline (Group 1) ([3]; oral 0.1 mg/kg/day (Group 4)) | mean histologic score of the anterior segment compared with saline (Group 1) ([3]; oral 1 mg/kg/day (Group 2)) | wide-field fundus images ([4]; high dose 1 mg/kg/day PO) | wide-field fundus images ([4]; low dose 0.1 mg/kg/day PO) | mean IOP compared with the other groups [5] | mean cumulative inflammation score compared with Group 1 (BSS) ([6]; Day 3 (72 hours), high dose 1 mg/kg/day PO, P<0.034) | mean cumulative inflammation score compared with saline treated eyes ([6]; any treatment time, low dose 0.1 mg/kg/day PO) | reduction of ocular inflammation relative to low dose prednisone ([6]; high dose 1 mg/kg/day PO) | time to reduction of inflammation ([6]; high dose 1 mg/kg/day PO)
1 | CC1(C)O[C@@H]2C[C@H]3[C@@H]4CCC5=CC(=O)C=C[C@]5(C)[C@@]4(F)[C@@H](O)C[C@]3(C)[C@]2(C(=O)CO)O1 [TA, triamcinolone acetonide] | 20-60% | Four of the eight patients | about 3 lines | greater decrease in retinal thickness | looks better than the intravitreally Ozurdex treated eye | about 20% | No deaths | over 100 microns |  |  |  |  |  |  |  |  |  | 
2 | C[C@]12C=CC(=O)C=C1CC[C@@H]1[C@@H]2C(=O)C[C@@]2(C)[C@H]1CC[C@]2(O)C(=O)CO [prednisone] |  |  |  |  |  |  |  |  | lower than the mean score of eyes treated with low dose oral prednisone | not significantly different than Group 1 | not significantly different than Group 1 | near pre-treatment appearance | only slightly improved over vehicle treated eyes | significantly lower than Groups 1, 2, and 3; also recorded: significantly lower IOP than all other groups | significantly lower | not significantly different than saline treated eyes | more effective than low dose prednisone | three days
